Data reported in patent US20220062294A1, “PHARMACEUTICAL COMPOSITIONS OF TETRACYCLIC QUINOLONE ANALOGS AND THEIR SALTS” (Senhwa Biosciences, Inc., priority 2020, published 2022).

Assays:
[1] = test system: multiple cancer cell lines; assay: Alamar Blue cell viability assay, overall statement on cancer cell lines; format: cell-based
Description: The effect of Compound I on cell viability was assessed by Alamar Blue assay of metabolic activity in various cancer cell lines.

normal cells = assay: Alamar Blue cell viability assay, overall statement on normal cells; format: cell-based
BRCA1/2 deficient cells = assay: Toxicity against BRCA1/2 deficient cell lines; format: cell-based; conditions: cell lines of different genetic backgrounds (colon, breast and ovary), mouse and human
[2] = test system: BRCA2 knockout tumor cells; assay: Xenograft model, BRCA2 knockout vs isogenic wild type tumor cells; format: in vivo; conditions: BRCA2 knockout tumor cells in a xenograft model, compared with isogenic wild type control cells
[3] = test system: metastatic, recurrent, locally, advanced, or unresectable solid malignancy; assay: Pharmacokinetic and dose escalation study in patients with solid malignancy (Example 6); format: in vivo, human
Description: In pharmacokinetic and dose escalation studies, wadult patients with metastatic, recurrent, locally, advanced, or unresectable solid malignancy (patients with histologically and/or cytologically confirmed solid malignancy), who received prior anti-cancer treatment(s) until disease progression, at 10 different dose levels of Compound I were evaluated. Groups 1-7 were administered Compound I intravenously on days 1 and 8 of a 4-week cycle at 50, 100, 150, 200, 250, 325, and 475 mg/m^2 (solid Compound I reconstituted with 5% glucose in sterile water or similar biologically acceptable IV fluid), respectively. Groups 8-10 were administered intravenously on days 1, 8, and 15 of a 4-week cycle at 325, 475, and 650 mg/m^2, respectively. Each patient received each dose over 1 hour by IV infusion on days described above.
18 Patients were diagnosed with metastatic breast cancer.
12 Patients harbored BRCA1 or BRCA2 mutation. From the same group of 12 patients harboring BRCA1 or BRCA2 mutation, 8 patients had breast cancer (FIG. 2). Of the 8 patients, 6 patients harbored BRCA2 mutation and had breast cancer (FIG. 3). In FIGS. 1-3, each bar represents an individual in a treatment Group as indicated by the Group number corresponding to the treatment Groups.

Structure (SMILES): Cc1cnc(CNC(=O)c2c(=O)c3ccc(N4CCCN(C)CC4)nc3n3c2sc2ccccc23)cn1 [Compound I, 2-(4-Methyl-[1,4]diazepan-1-yl)-5-oxo-5H-7-thia-1,11b-diaza-benzo[c]fluorene-6-carboxylic acid (5-methyl-pyrazin-2-ylmethyl)-amide]
- antiproliferative activity [1]: antiproliferation activity
- activity in normal cells compared with cancer cell lines (normal cells): significantly less active
- toxicity against BRCA1/2 deficient cells (BRCA1/2 deficient cells): specific toxicity
- therapeutic index of activity [2]: wide therapeutic index
- response to Compound I treatment ([3]; one patient of Group 10 (650 mg/m^2 IV, days 1, 8, 15 of 4-week cycle) with PALB2 mutation and BRCA2 mutation): partial response (PR)
- response to Compound I treatment ([3]; patients with BRCA2 mutation, dose greater than or equal to 150 mg/m^2, IV): tumor shrinkage
